Data published in the supplement of paper PMC10307832.

What was measured:
Assay in all cases: relative viability (nuclei count vs DMSO), 5 days (fraction); higher = more cells survive
[1] = compound: C1COCCN1C2=NC(=NC3=C2OC4=C3C=CC=N4)C5=CC(=CC=C5)NC(=O)C6=CN=C(C=C6)N
In short: (§1)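 Only plates meeting two conditions passed: control CV below 25% and at least one doubling. Lung cancer cell lines, kept overnight at 37 °C in 1536-well plates, were pinned with five library-drug doses (not always all listed) √10 apart on vehicle-anchored plates and grown 5 days without medium change. A one-step fix, permeabilisation and Hoechst stain preceded 4× imaging and MetaXpress nuclear counting. Viability equals treated-well nuclei divided by vehicle-well nuclei, as the median over plates.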

SGI-1776 = compound: CN1CCC(CNc2ccc3ncc(-c4cccc(OC(F)(F)F)c4)n3n2)CC1 [SGI-1776]
In short: as §1

Entinostat = compound: Nc1ccccc1NC(=O)c1ccc(CNC(=O)OCc2cccnc2)cc1 [Entinostat]
In short: as §1

SGI-1776 + Lapatinib = compound: CN1CCC(CNc2ccc3ncc(-c4cccc(OC(F)(F)F)c4)n3n2)CC1 [SGI-1776] + CS(=O)(=O)CCNCc1ccc(-c2ccc3ncnc(Nc4ccc(OCc5cccc(F)c5)c(Cl)c4)c3c2)o1 [Lapatinib] (partner 2 µM)
In short: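 Relative viability divides the nuclei count in treated wells by that in vehicle wells. Lung cancer cell lines were seeded in 1536-well plates, dosed by pin tool the next day, and fixed and stained after 5 days in one step with final 0.05% Triton X-100, 1% formaldehyde and 1 ug/ml Hoechst. Dosing was a single drug or a fixed anchor-drug dose plus five library-drug doses (not always all listed) in √10 steps, and values are medians of duplicate plates imaged at 4×.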

Cell Line: UMC-11
- relative viability ([1]; 0.02 µM): 0.983
- relative viability ([1]; 0.06325 µM): 1.05
- relative viability ([1]; 0.2 µM): 0.945
- relative viability ([1]; 0.6325 µM): 1.13
- relative viability ([1]; 2 µM): 0.818
- relative viability (SGI-1776; 0.08 µM): 1
- relative viability (SGI-1776; 0.8 µM): 1.04
- relative viability (SGI-1776; 2.53 µM): 0.923
- relative viability (SGI-1776; 8 µM): 0.779
- relative viability (Entinostat; 0.02 µM): 1.14
- relative viability (Entinostat; 0.06325 µM): 1.11
- relative viability (Entinostat; 0.2 µM): 0.918
- relative viability (Entinostat; 0.6325 µM): 0.287
- relative viability (Entinostat; 2 µM): 0.203
- relative viability (SGI-1776 + Lapatinib; first compound 0.08 µM): 0.907
- relative viability (SGI-1776 + Lapatinib; first compound 0.8 µM): 1.12
- relative viability (SGI-1776 + Lapatinib; first compound 2.53 µM): 1.11
- relative viability (SGI-1776 + Lapatinib; first compound 8 µM): 0.644
